According to ChEMBL document CHEMBL1201862, “PubChem BioAssay data set” (2004):
Active and inactive are the calls of the source.

Legend:
[1] = target: T1, Trace amine-associated receptor 1 (Homo sapiens, UniProt Q96RJ0); test: Fluorescence-based cell-based high throughput dose response assay to identify agonists of the human trace amine associated receptor 1 (TAAR1).; assay type: functional
T1 sequence (Q96RJ0 whole entry): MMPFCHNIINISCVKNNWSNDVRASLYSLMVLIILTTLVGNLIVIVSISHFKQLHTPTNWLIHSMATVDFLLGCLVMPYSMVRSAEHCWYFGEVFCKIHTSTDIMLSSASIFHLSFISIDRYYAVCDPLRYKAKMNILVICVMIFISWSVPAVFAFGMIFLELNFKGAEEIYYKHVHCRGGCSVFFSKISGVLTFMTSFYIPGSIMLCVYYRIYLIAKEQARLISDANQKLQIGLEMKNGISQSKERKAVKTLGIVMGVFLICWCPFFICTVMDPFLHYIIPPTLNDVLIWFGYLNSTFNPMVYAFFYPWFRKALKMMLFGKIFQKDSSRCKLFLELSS

[2] = target: T1, Trace amine-associated receptor 1; test: Counterscreen for agonists of the human trace amine associated receptor 1 (hTAAR1): Fluorescence-based cell-based high throughput dose response assay to identify hTAAR1 agonist that also desensitize TAAR1 receptor response.; assay type: functional
[3] = cells; assay type: functional, cell-based
[4] = cells; assay type: functional, cell-based; remark: listed apart in the source
[5] = target: Potassium voltage-gated channel subfamily KQT member 2 (Rattus norvegicus, UniProt O88943); test: retigabine-insensitive KCNQ2 potentiators, concentration-response, dose response, cell-based, retigabine-insensitive compounds (AID 2654); assay type: functional
[6] = tested on: HEK293; test: Fluorescence-based counterscreen for potentiators or agonists of NPY-Y1: cell-based high-throughput dose response assay for inhibitors of cyclic nucleotide gated ion channel (CNGC) activity. In this assay, the parental HEK293 cell line transfected with a cyclic-nucleotide gated ion channel (CNGC)-based cAMP sensor is used to measure inhibition of isoproterenol-induced CNGC …; assay type: functional; settings: Homo sapiens
[7] = target: T2, Neuropeptide Y receptor type 1 (Homo sapiens, UniProt P25929); test: Fluorescence-based dose response cell-based high-throughput screening assay for agonists of NPY-Y1. [Related pubchem assays: 1697 (Screening assay (NPY-Y1 agonists).), 1359 (Screening assay (NPY-Y2 potentiators or agonists).), 1304 (Screening assay (NPY-Y1 potentiators or agonists).), 1704 (Screening assay (CNGC inhibitors).), 1791 (Summary AID.)]; assay type: functional
[8] = target: T3, Neuropeptide Y receptor type 2 (Homo sapiens, UniProt P49146); test: Fluorescence-based counterscreen for agonists of NPY-Y1: cell-based high-throughput dose response assay for agonists of NPY-Y2.; assay type: functional
[9] = tested on: Streptococcus sp. 'group A'; test: growth inhibition of control SK(-) GAS strain, dose response, counter-screen for streptokinase expression inhibitor project, luminescence, kanamycin, BacTiterGlo, confirmation (AID 1900); assay type: functional, organism-based
[10] = Luminescence Cell-Based Dose Confirmation HTS to Identify Inhibitors of Platelet Dense Granule Release. [Related pubchem assays: 1663 (Primary HTS), 1678 (Summary of Project)]; assay type: functional
[11] = tested on: HeLa; test: HeLa cell cytotoxicity, dose response, cytotoxicity control, 24 h, cherry-picked samples (AID 504726); assay type: functional, cell-based; settings: Homo sapiens;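 note: potency for cytotoxicity as loss of luminescence signal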
[12] = Fluorescence Cell-Based Dose Response to Identify Inhibitors of Thrombin Receptor-Activating Peptide SFLLRN-Mediated P-Selectin Induction on Platelets. [Related pubchem assays: 1663 (Primary HTS), 1889 (retest at dose ), 1891 (counterscreen), 1678 (Project Summary)]; assay type: functional
[13] = tested on: Streptococcus; test: Group A Streptococcus viability loss, dose response, counter-screen for streptokinase expression inhibitor project, luminescence, BacTiterGlo (AID 1915); assay type: functional, organism-based;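 note: potency for reduction of bacterial viability or growth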
[14] = tested on: HEK293; test: Fluorescence-based counterscreen for potentiators or agonists of NPY-Y2: cell-based high-throughput dose response assay to identify inhibitors of cyclic nucleotide gated ion channel (CNGC) activity. In this assay, the parental HEK293 cell line transfected with a cyclic-nucleotide gated ion channel (CNGC)-based cAMP sensor is used to measure inhibition of isoproterenol-induced CNGC activity by test compound.; assay type: functional; settings: Homo sapiens
[15] = target: T4, Eukaryotic translation initiation factor 2-alpha kinase 3 (Homo sapiens, UniProt Q9NZJ5); test: Dose response cell-based high-throughput screening assay to measure PERK inhibition. [Related pubchem assays: 1416 ]; assay type: functional
[16] = target: T4, Eukaryotic translation initiation factor 2-alpha kinase 3; test: Counterscreen assay for PERK inhibitors: Dose response cell-based high throughput screening assay to measure inhibition of PERK at 6 hours. [Related pubchem assays: 1522, 1416 ]; assay type: functional
[17] = target: T2, Neuropeptide Y receptor type 1; test: Fluorescence-based counterscreen for agonists of NPY-Y2: cell-based high-throughput dose response assay for agonists of NPY-Y1.; assay type: functional
[18] = target: T3, Neuropeptide Y receptor type 2; test: Fluorescence-based cell-based high-throughput dose response assay for agonists of NPY-Y2. [Related pubchem assays: 1703 (Screening assay (CNGC inhibitors).), 1359 (Screening assay (NPY-Y2 potentiators or agonists).), 1304 (Screening assay (NPY-Y1 potentiators or agonists).), 1710 (Screening assay (NPY-Y2 agonists).), 1791 (Summary AID.)]; assay type: functional
[19] = target: Dual specificity protein phosphatase 3 (Homo sapiens, UniProt P51452); test: VHR1 inhibitor Ki determination, SAR follow-up, biochemical, colorimetric (AID 2004)
Chain of Dual specificity protein phosphatase 3 (P51452 whole entry): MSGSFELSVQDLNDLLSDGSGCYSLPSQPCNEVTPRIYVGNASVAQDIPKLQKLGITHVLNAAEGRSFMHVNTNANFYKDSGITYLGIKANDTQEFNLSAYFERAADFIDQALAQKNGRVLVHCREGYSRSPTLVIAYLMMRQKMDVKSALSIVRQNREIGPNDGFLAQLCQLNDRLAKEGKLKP

T2 sequence (P25929 whole entry): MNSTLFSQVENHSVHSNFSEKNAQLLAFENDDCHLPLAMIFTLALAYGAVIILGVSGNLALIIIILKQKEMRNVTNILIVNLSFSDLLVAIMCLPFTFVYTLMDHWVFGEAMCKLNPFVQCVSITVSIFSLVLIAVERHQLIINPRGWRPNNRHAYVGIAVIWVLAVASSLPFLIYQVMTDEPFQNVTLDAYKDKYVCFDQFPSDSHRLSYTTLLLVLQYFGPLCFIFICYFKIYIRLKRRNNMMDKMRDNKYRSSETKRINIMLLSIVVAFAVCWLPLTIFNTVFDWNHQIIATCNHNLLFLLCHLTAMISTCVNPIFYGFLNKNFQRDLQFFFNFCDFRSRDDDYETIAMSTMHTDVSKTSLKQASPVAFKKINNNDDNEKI
T4 sequence (Q9NZJ5 whole entry): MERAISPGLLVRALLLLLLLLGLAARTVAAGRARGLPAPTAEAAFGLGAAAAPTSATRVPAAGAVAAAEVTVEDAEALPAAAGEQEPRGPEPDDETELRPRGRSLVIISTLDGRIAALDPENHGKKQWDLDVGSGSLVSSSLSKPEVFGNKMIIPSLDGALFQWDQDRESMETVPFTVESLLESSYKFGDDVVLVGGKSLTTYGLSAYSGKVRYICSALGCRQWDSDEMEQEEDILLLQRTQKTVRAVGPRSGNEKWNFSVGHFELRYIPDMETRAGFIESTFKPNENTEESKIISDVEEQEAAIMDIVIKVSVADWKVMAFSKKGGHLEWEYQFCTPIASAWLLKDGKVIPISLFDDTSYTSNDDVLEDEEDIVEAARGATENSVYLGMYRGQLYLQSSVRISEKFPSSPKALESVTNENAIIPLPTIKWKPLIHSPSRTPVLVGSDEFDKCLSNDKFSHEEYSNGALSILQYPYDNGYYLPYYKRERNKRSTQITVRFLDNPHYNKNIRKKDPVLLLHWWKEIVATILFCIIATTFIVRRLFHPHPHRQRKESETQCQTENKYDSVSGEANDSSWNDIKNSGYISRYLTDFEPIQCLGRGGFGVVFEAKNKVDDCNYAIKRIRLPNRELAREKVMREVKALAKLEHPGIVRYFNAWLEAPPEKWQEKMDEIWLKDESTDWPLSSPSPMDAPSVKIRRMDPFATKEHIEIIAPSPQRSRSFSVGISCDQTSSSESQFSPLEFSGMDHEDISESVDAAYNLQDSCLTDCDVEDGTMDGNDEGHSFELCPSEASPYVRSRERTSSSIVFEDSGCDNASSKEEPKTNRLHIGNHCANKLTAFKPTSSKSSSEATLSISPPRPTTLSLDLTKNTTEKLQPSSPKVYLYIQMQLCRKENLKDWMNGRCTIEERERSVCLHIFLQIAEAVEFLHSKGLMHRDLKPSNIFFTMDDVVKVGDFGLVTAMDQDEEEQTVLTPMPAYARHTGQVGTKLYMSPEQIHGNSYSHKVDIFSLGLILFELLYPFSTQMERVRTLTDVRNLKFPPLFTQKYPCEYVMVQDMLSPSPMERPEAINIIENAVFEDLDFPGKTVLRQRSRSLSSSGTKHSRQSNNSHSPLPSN
T3 sequence (P49146 whole entry): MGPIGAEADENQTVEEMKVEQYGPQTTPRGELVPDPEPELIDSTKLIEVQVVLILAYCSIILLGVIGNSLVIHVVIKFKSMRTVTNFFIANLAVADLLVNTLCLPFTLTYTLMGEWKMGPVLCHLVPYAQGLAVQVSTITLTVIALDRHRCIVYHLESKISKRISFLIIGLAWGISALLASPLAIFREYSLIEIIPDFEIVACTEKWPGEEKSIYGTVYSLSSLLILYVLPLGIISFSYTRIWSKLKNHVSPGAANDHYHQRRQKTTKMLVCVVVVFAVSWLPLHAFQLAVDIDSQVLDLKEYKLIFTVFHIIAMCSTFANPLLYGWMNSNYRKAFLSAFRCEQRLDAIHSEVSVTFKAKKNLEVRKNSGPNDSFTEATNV
Chain of Potassium voltage-gated channel subfamily KQT member 2 (O88943 whole entry): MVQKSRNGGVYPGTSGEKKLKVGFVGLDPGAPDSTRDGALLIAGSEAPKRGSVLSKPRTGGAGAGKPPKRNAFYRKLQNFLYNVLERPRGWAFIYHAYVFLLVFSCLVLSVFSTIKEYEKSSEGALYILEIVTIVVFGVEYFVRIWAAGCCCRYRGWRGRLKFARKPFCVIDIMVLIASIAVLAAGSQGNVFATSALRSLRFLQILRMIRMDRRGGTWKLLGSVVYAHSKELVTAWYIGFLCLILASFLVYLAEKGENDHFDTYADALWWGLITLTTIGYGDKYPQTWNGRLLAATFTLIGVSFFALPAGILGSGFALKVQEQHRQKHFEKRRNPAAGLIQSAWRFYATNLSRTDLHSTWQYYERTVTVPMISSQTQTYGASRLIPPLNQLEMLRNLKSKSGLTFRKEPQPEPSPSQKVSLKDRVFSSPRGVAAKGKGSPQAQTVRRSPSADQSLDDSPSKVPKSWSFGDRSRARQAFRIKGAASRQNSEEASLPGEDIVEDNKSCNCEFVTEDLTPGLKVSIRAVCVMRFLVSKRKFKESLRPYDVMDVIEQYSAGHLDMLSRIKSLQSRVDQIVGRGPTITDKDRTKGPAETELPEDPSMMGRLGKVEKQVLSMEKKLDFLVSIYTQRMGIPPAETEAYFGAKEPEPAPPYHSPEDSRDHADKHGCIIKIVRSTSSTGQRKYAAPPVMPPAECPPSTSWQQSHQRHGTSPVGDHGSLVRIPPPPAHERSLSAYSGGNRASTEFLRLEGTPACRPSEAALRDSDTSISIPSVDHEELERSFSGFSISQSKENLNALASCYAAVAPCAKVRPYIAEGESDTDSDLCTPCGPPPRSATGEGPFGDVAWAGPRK

Q: For `O=C(Nc1cccnc1)Nc1cccc(F)c1`, which EC50 [1] is on record?
A: 0.675 µM (active)

Q: What about the IC50 [2] of the same compound?
A: 5.05 µM (active)

Q: What about the EC50 [3] of the same compound?
A: > 29.9 µM (inactive)

Q: And the IC50 [4]?
A: > 29.9 µM (inactive)

Q: And the EC50 [5]?
A: 6.28 µM (active)

Q: With `Cc1ccccc1OCC(O)CN1CCN(CC(O)COc2ccccc2C)CC1` (centres undefined) as the compound, how does the IC50 [6] read?
A: 12 µM (not active)

Q: What about the EC50 [7] of the same compound?
A: > 35.4 µM (not active)

Q: What about the EC50 [8] of the same compound?
A: > 35.4 µM (not active)

Q: With `Oc1nc2c(s1)C=Nc1ccccc1N2` as the compound, how does the EC50 [9] read?
A: > 150 µM (not active)

Q: And the EC50 [10]?
A: 1.17 µM (active)

Q: And the AC50 [11]?
A: 71.5 µM (active)

Q: What about the EC50 [12] of the same compound?
A: < 0.3 µM (active)

Q: And the EC50 [13]?
A: > 150 µM (not active)

Q: For `COCCOC(=O)C(CC(=O)O)NCc1ccco1` (centres undefined), which EC50 [14] is on record?
A: > 35.4 µM (not active)

Q: And the EC50 [15]?
A: > 55.7 µM (not active)

Q: What about the EC50 [16] of the same compound?
A: > 55.7 µM (not active)

Q: What about the EC50 [17] of the same compound?
A: > 35.4 µM (not active)

Q: What about the EC50 [18] of the same compound?
A: > 35.4 µM (not active)

Q: Which Ki [19] does the source give for `CC(C)=C1C(=O)NN(c2ccccc2)C1=O` here?
A: 71 µM (inactive)
